Measurements as given in ChEMBL document CHEMBL4610076, “Renoprotective Mono- and Triterpenoids from the Fruit of Gardenia jasminoides” (J Nat Prod, 2020).

System: NRK-52E
Assay: Cytoprotective activity against LPS-induced NRK-52E cells assessed as reduction in cell death measured every 5 min for 72 hrs by xCELLigence based RTCA analysis
Format: functional
Settings: Rattus norvegicus

CC1(C)CC[C@]2(C(=O)O)CC[C@]3(C)C(=CC[C@@H]4[C@@]5(C)CC[C@H](O)[C@@](C)(CO)[C@@H]5[C@H](O)C[C@]43C)[C@@H]2[C@@H]1O
EC50: 0.118 µM

C[C@@H]1CC[C@]2(C(=O)O)CC[C@]3(C)C(=CC[C@@H]4[C@@]5(C)CC[C@H](O)C(CO)(CO)[C@@H]5CC[C@]43C)[C@@H]2[C@]1(C)O
EC50: 1.6 µM

CC1(C)CC(O)CC2=C1C(=O)OC2 (stereo unspecified)
EC50: > 100 µM

CC1=C(C(=O)O)C(C)(C)[C@@H](O)[C@H](O)C1
EC50: > 100 µM

C[C@@H]1CC[C@]2(C(=O)O)CC[C@]3(C)C(=CC[C@@H]4[C@@]5(C)CC[C@H](O)[C@@](C)(CO)[C@@H]5[C@H](O)C[C@]43C)[C@@H]2[C@]1(C)O
EC50: > 100 µM

C=C1C(CO[C@@H]2O[C@H](COC(=O)/C=C/c3cc(OC)c(O)c(OC)c3)[C@@H](O)[C@H](O)[C@H]2O)=CC(=O)CC1(C)C
EC50: > 100 µM

CC1=CC(=O)CC(C)(C)[C@@H]1CO[C@@H]1O[C@H](CO)[C@@H](O)[C@H](O)[C@H]1O
EC50: > 100 µM

C=C(C)[C@@H]1CC[C@@H]2[C@]3(CC[C@]4(C)[C@@H]([C@@H]5CC[C@H]([C@](C)(O)CO)OC5)CC[C@@]24C)C[C@]13CCC(=O)OC
EC50: > 100 µM

COc1cc(/C=C/C(=O)OC[C@H]2O[C@@H](OC[C@H]3C(C)=CC(=O)CC3(C)C)[C@H](O)[C@@H](O)[C@@H]2O)cc(OC)c1O
EC50: 35.6 µM

C=C(C)[C@@H]1CC[C@@H]2[C@]3(CC[C@]4(C)[C@@H]([C@H](CO)CC/C=C(/C)CO)CC[C@@]24C)C[C@]13CCC(=O)O
EC50: 11.5 µM

CC1=C(CO)C(C)(C)C[C@H](O)[C@@H]1O
EC50: > 100 µM

COC(=O)CC[C@]12C[C@]13CC[C@]1(C)[C@@H]([C@H](CO)CC/C=C(/C)CO)CC[C@@]1(C)[C@@H]3CC[C@H]2C(C)(C)O
EC50: 26.8 µM

CC1(C)CC(=O)C=C(C(=O)O)[C@@]1(C)O
EC50: > 100 µM

CC1=C(CO)C(C)(C)C[C@H](O)[C@H]1O
EC50: > 100 µM

C=C(CO)[C@@H]1CC[C@@H]2[C@]3(CC[C@]4(C)[C@@H]([C@H](CO)CC/C=C(/C)CO)CC[C@@]24C)C[C@]13CCC(=O)OC
EC50: > 100 µM

CC1(C)CC(=O)C=C(C(=O)O)[C@]1(C)O
EC50: > 100 µM

CC1=CC(=O)CC(C)(C)[C@@H]1CO
EC50: 1.4 µM

CC1(C)C[C@H](O)[C@H](O[C@@H]2O[C@H](CO)[C@@H](O)[C@H](O)[C@H]2O)C2=C1C(=O)OC2
EC50: > 100 µM

CC1=CC(=O)CC(C)(C)[C@H]1CO[C@@H]1O[C@H](CO)[C@@H](O)[C@H](O)[C@H]1O
EC50: 1.2 µM

C=C(C)[C@@H]1CC[C@@H]2[C@]3(CC[C@]4(C)[C@@H]([C@H](CO)CC/C=C(/C)CO)CC[C@@]24C)C[C@]13CCC(=O)OC
EC50: > 100 µM

CO[C@H]1C[C@]2(C)C(=CC[C@@H]3[C@@]4(C)CC[C@H](O)C(CO)(CO)[C@@H]4CC[C@]32C)c2c1ccc(C)c2C
EC50: > 100 µM

CC1=C(C(=O)O[C@@H]2O[C@H](CO)[C@@H](O)[C@H](O)[C@H]2O)C(C)(C)CC[C@@H]1O
EC50: > 100 µM

Cc1ccc2c(c1C)C1=CC[C@@H]3[C@@]4(C)CC[C@H](O)C(CO)(CO)[C@@H]4CC[C@@]3(C)[C@]1(C)C[C@@H]2O
EC50: > 100 µM

CC1=CC(=O)CC(C)(C)[C@]1(O)CO
EC50: > 100 µM

C=C(C)[C@@H]1CC[C@@H]2[C@]3(CC[C@]4(C)[C@@H]([C@@H]5CC[C@H]([C@](C)(O)CO)OC5)CC[C@@]24C)C[C@]13CCC(=O)O
EC50: 38.4 µM

CC1=C(C(=O)O)C(C)(C)C=CC1=O
EC50: > 100 µM

CC1=C(C(=O)O)C(C)(C)C[C@H](O)[C@@H]1O
EC50: 0.146 µM

CC1=C(CO)C(C)(C)C[C@H](O)[C@@H]1O[C@@H]1O[C@H](CO)[C@@H](O)[C@H](O)[C@H]1O
EC50: > 100 µM

C[C@H]1[C@H](C)CC[C@]2(C(=O)O)CC[C@]3(C)C(=CC[C@@H]4[C@@]5(C)CC[C@H](O)[C@@](C)(CO)[C@@H]5CC[C@]43C)[C@H]12
EC50: > 100 µM

C[C@@H]1CC[C@]2(C(=O)O)CC[C@]3(C)C(=CC[C@@H]4[C@@]5(C)CC[C@H](O)C(C)(C)[C@@H]5CC[C@]43C)[C@@H]2[C@]1(C)O [POMOLIC ACID]
EC50: 0.0142 µM

Cc1c(C)c2c(c(C)c1O)CCC(C)(C(=O)O)O2 (stereo unspecified) [TROLOX]
EC50: 1.9 µM
